The target of experiment [1] is T1, CDK9/CycT1 (Homo sapiens, UniProt P50750).
T1 construct: Recombinant full-length His-tagged human CDK9 and CycT1; His; purchased Invitrogen PV4131; host or cells: insect cells
In words: CDK9/CycT1 high ATP kinase assay (TR-FRET, Method 1b). The experiment is classed as biochemical. The note with it: 2 mM ATP. The procedure: 1b. CDK9/CycT1 High ATP Kinase Assay
CDK9/CycT1-inhibitory activity of compounds of the present invention at a high ATP concentration after preincubation of enzyme and test compounds was quantified employing the CDK9/CycT1 TR-FRET assay as described in the following paragraphs.
Recombinant full-length His-tagged human CDK9 and CycT1, expressed in insect cells and purified by Ni-NTA affinity chromatography, were purchase from Invitrogen (Cat. No PV4131). As substrate for the kinase reaction biotinylated peptide biotin-Ttds-YISPLKSPYKISEG (C-terminus in amid form) was used which can be purchased e.g. from the company JERINI peptide technologies (Berlin, Germany).
For the assay 50 nl of a 100 fold concentrated solution of the test compound in DMSO was pipetted into a black low volume 384 well microtiter plate (Greiner Bio-One, Frickenhausen, Germany), 2 μl of a solution of CDK9/CycT1 in aqueous assay buffer [50 mM Tris/HCl pH 8.0, 10 mM MgCl2, 1.0 mM dithiothreitol, 0.1 mM sodium ortho-vanadate, 0.01% (v/v) Nonidet-P40 (Sigma)] were added and the mixture was incubated for 15 min at 22° C. to allow pre-binding of the test compounds to the enzyme before the start of the kinase reaction. […] The concentration of CDK9/CycT1 was adjusted depending of the activity of the enzyme lot and was chosen appropriate to have the assay in the linear range, typical concentrations were in the range of 0.5 μg/mL. The reaction was stopped by the addition of 5 μl of a solution of TR-FRET detection reagents (0.2 μM streptavidine-XL665 [Cisbio Bioassays, Codolet, France] and 1 nM anti-RB(pSer807/pSer811)-antibody from BD Pharmingen [#558389] and 1.2 nM LANCE EU-W1024 labeled anti-mouse IgG antibody [Perkin-Elmer, product no. AD0077]) in an aqueous EDTA-solution (100 mM EDTA, 0.2% (w/v) bovine serum albumin in 100 mM HEPES pH 7.5).
The resulting mixture was incubated 1 h at 22° C. to allow the formation of complex between the phosphorylated biotinylated peptide and the detection reagents. Subsequently the amount of phosphorylated substrate was evaluated by measurement of the resonance energy transfer from the Eu-chelate to the streptavidine-XL. Therefore, the fluorescence emissions at 620 nm and 665 nm after excitation at 350 nm was measured in a HTRF reader, e.g. a Rubystar (BMG Labtechnologies, Offenburg, Germany) or a Viewlux (Perkin-Elmer). The ratio of the emissions at 665 nm and at […] was taken as the measure for the amount of phosphorylated substrate. The data were normalised (enzyme reaction without inhibitor=0% inhibition, all other assay components but no enzym=100% inhibition).

The target in experiment [2] is T2, CDK2/CycE (Homo sapiens, UniProt P24941).
T2 construct: GST; purchased ProQinase GmbH (Freiburg, Germany); host or cells: insect cells (Sf9)
The experiment is described as follows: CDK2/CycE high ATP kinase assay (TR-FRET, Method 2b). It is filed as biochemical. The conditions noted are these: 2 mM ATP. The protocol:
2b. CDK2/CycE High ATP Kinase Assay:
CDK2/CycE-inhibitory activity of compounds of the present invention at 2 mM adenosine-tri-phosphate (ATP) was quantified employing the CDK2/CycE TR-FRET (TR-FRET=Time Resolved Fluorescence Resonance Energy Transfer) assay as described in the following paragraphs.
Recombinant fusion proteins of GST and human CDK2 and of GST and human CycE, expressed in insect cells (Sf9) and purified by Glutathion-Sepharose affinity chromatography, were purchase from ProQinase GmbH (Freiburg, Germany). As substrate for the kinase reaction biotinylated peptide biotin-Ttds-YISPLKSPYKISEG (C-terminus in amid form) was used which can be purchased e.g. from the company JERINI peptide technologies (Berlin, Germany).
For the assay 50 nl of a 100 fold concentrated solution of the test compound in DMSO was pipetted into a black low volume 384 well microtiter plate (Greiner Bio-One, Frickenhausen, Germany), 2 μl of a solution of CDK2/CycE in aqueous assay buffer [50 mM Tris/HCl pH 8.0, 10 mM MgCl2, 1.0 mM dithiothreitol, 0.1 mM sodium ortho-vanadate, 0.01% (v/v) Nonidet-P40 (Sigma)] were added and the mixture was incubated for 15 min at 22° C. to allow pre-binding of the test compounds to the enzyme before the start of the kinase reaction. Then the kinase reaction was started by the addition of 3 μl of a solution ATP (3.33 mM=>final conc. in the 5 μl assay volume is 2 mM) and substrate (1.25 μM=>final conc. in the 5 μl assay volume is 0.75 μM) in assay buffer and the resulting mixture was incubated for a reaction time of 25 min at 22° C. The concentration of CDK2/CycE was adjusted depending of the activity of the enzyme lot and was chosen appropriate to have the assay in the linear range, typical concentrations were in the range of 15 ng/ml. The reaction was stopped by the addition of 5 μl of a solution of TR-FRET detection reagents (0.2 μM streptavidine-XL665 [Cisbio Bioassays, Codolet, France] and 1 nM anti-RB(pSer807/pSer811)-antibody from BD Pharmingen [#558389] and 1.2 nM LANCE EU-W1024 labeled anti-mouse IgG antibody [Perkin-Elmer, product no. AD0077, as an alternative a Terbium-cryptate-labeled anti-mouse IgG antibody from Cisbio Bioassays can be used]) in an aqueous EDTA-solution (100 mM EDTA, 0.2% (w/v) bovine serum albumin in 100 mM HEPES pH 7.5).
The resulting mixture was incubated 1 h at 22° C. to allow the formation of complex between the phosphorylated biotinylated peptide and the detection reagents. Subsequently the amount of phosphorylated substrate was evaluated by measurement of the resonance energy transfer from the Eu-chelate to the streptavidine-XL. Therefore, the fluorescence emissions at 620 nm and 665 nm after excitation at 350 nm were measured in a TR-FRET reader, e.g. a Rubystar (BMG Labtechnologies, Offenburg, Germany) or a Viewlux (Perkin-Elmer). The ratio of the emissions at 665 nm and at […] was taken as the measure for the amount of phosphorylated substrate. The data were normalised (enzyme reaction without inhibitor=0% inhibition, all other assay components but no enzym=100% inhibition).

The target of experiment [3] is T3, human PTEFb (CDK9/Cyclin T1) (Homo sapiens, UniProt P50750).
T3 construct: purchased ProQinase, Freiburg, Germany
In words: Surface Plasmon Resonance PTEFb (Method 8). The experiment is classed as binding. The note with it: 37° C., experimental parameters E.

For experiment [4] the following is noted: in vivo; cited from earlier work.

Marks after values point to notes of the source that are not given here.

T1 sequence (P50750 whole entry): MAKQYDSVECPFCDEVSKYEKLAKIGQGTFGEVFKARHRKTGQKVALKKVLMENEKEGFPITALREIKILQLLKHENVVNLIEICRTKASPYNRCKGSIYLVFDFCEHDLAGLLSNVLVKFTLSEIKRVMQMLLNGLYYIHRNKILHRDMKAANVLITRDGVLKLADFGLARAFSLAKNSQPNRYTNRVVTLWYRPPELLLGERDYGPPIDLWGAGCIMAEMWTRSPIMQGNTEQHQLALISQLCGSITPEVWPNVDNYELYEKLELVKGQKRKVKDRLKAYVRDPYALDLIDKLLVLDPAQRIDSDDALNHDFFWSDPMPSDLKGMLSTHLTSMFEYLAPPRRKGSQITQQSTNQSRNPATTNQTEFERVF
T1 sequence (O60563 whole entry partner): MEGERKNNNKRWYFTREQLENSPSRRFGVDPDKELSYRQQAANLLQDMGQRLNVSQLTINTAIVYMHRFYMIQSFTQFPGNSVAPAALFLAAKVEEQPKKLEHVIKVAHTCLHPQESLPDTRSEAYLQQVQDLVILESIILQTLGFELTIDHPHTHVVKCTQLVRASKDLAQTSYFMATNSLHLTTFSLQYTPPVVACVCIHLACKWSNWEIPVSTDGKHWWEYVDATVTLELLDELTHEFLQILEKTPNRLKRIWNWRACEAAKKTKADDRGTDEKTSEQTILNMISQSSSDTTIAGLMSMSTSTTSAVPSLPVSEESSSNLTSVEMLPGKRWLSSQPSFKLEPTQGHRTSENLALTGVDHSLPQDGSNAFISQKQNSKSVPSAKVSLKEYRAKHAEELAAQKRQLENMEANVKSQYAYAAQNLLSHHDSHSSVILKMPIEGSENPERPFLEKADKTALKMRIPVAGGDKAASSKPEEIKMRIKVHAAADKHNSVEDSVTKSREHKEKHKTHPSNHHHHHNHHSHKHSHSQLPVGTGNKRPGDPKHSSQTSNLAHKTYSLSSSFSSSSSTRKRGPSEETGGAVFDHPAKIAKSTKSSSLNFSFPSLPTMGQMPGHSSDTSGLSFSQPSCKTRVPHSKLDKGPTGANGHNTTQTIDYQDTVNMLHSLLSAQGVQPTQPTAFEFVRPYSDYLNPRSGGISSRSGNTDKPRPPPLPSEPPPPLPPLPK
T3 sequence (P50750 whole entry): as the sequence (P50750 whole entry) above
T3 sequence (O60563 whole entry partner): as the sequence (O60563 whole entry partner) above

Broadly, the IC50 is the concentration needed to halve the response being measured. A higher IC50 goes with weaker potency in that assay. What is called koff is a measure of how fast the partners let go of each other. For the molecule `CS(=N)(=O)Cc1cc2cc(c1)Nc1ncc(F)c(n1)-c1ccc(F)cc1OCCCCN2` (racemic) [Example 25, (rac)-16,20-difluoro-9-[(S-methylsulfonimidoyl)methyl]-3,4,5,6-tetrahydro-2H,12H-13,17-(azeno)-11,7-(metheno)-1,6,12,14-benzoxatriazacyclononadecine], the IC50 in experiment [1] (Method 1b) amounted to 0.0033 µM; in experiment [2], 0.742 µM. In addition, the “Selectivity high ATP CDK9 over high ATP CDK2: IC50 (high ATP CDK2)/IC50 (high ATP CDK9)” value in experiment [1] (Methods 1b and 2b) was 224. Also, the Target resident time in experiment [3] (1/koff) is 14.7* min. Moreover, the koff in experiment [3] (read-out: Dissociation rate constant koff) was found to be 0.00113 s⁻¹.

For `C[N+]1(C)[C@@H]2C[C@@H](OC(=O)C(O)(c3cccs3)c3cccs3)C[C@H]1[C@@H]1O[C@@H]12` [tiotropium], the “duration of protection against bronchospasms” value in experiment [4] is “more than 6 hours”.

The values are drawn from patent US10214542B2, “Modified macrocyclic compounds” (BAYER PHARMA AKTIENGESELLSCHAFT, priority 2015, dated 2019).
